Reference: patent EP1526135A1, “Azabenzodiazepines as pde4 inhibitors” (Warner-Lambert Company LLC, priority 2003, dated 2005)

Test system: type 4 phosphodiesterases
Assay: Inhibition of type 4 phosphodiesterase enzymatic activity (cytosolic preparation from U937 cells)
Type: biochemical
Conditions: PDE4 from cytosolic preparation of human cell line U937; inhibitor concentration range 0.1 to 100 µM
Experimental: The capacity of the compounds of formula (I) of the invention to inhibit cyclic nucleotide phosphodiesterases is evaluated by measuring their IC50 (concentration needed to inhibit 50% of the enzymatic activity). In the case of PDE4 enzymes, this value is compared to the IC50 value for rolipram, a reference inhibitor for PDE4 enzymes.
The type 4 phosphodiesterases are obtained from a cytosolic preparation extracted from a cell line of human origin, U937, according to the method adapted from T. J. Torphy et al., 1992, J. Pharm. Exp. Ther. 263: 1195-1205.
The measurement of the enzymatic activity for the various types of PDE, and in particular the PDE4 enzymes, is carried out according to a method adapted from W. J. Thomson et al. 1979, Advances in Cyclic Nucleotide Research, Vol. 10: 69-92, ed. G. Brooker et al. Raven Press, NY.
For the determination of the IC50 value, the enzymatic activity is measured in the presence of the inhibitor in a concentration range from 0.1 to 100 µM.

Compound	IC50 [µM]
COc1cc2c3c(n1)C(c1ccccc1)=NC(NC(=O)c1cccnc1)C(=O)N3CC2 (racemic) [racemate of compound of Example 1, N-(4-Methoxy-9-oxo-6-phenyl-1,2,8,9-tetrahydro-5,7,9a-triaza-benzo[cd]azulen-8-yl)-nicotinamide]	6.1
COc1cc2c3c(n1)C(c1ccccc1)=NC(NC(=O)c1cccnc1)C(=O)N3CC2 (stereo not drawn) [first enantiomer (Rt=5.79 min) of compound of Example 1, N-(4-Methoxy-9-oxo-6-phenyl-1,2,8,9-tetrahydro-5,7,9a-triaza-benzo[cd]azulen-8-yl)-nicotinamide]	4.3
COc1cc2c3c(n1)C(c1ccccc1)=NC(NC(=O)c1cccnc1)C(=O)N3CC2 (stereo not drawn) [second enantiomer (Rt = 8.15 min) of compound of Example 1, N-(4-Methoxy-9-oxo-6-phenyl-1,2,8,9-tetrahydro-5,7,9a-triaza-benzo[cd]azulen-8-yl)-nicotinamide]	73
